# Reference: patent US20160257957A1, “METHODS AND COMPOSITIONS FOR TREATMENT OF ANGELMAN SYNDROME AND AUTISM SPECTRUM DISORDERS” (PRESIDENT AND FELLOWS OF HARVARD COLLEGE, priority 2010, published 2016)
# Where a SMILES comes first, the peptide text is derived from it. The star is where a group is joined. Cbz = O=C(OCc1ccccc1)*
# Legend:
# Arc = details: literature; cited from earlier work
# [1] = system: Ube3A-mediated degradation of Arc; assay: Ube3A-mediated degradation of Arc in transfected HEK293T cells (Western blot); type: cell-based; details: HEK293T cells transfected with Arc and Ube3A; MG132 10 μM
# Protocol: (FIG. 9A) Western blot analysis of protein lysates made from brains of wild type and Ube3A knockout mice two hours following kainate acid injection. Immunoprecipitations were performed with an anti-Ube3A antibody and blotted with an anti-Arc antibody to reveal co-immunoprecipitated Arc. Images presented are representative of experiments performed on four independent sets of wildtype and Ube3A knockout mice. (FIG. 9B) Protein lysates were prepared from HEK293T cells transfected with Myc-Arc and HA-tagged ubiquitin and the indicated constructs and then treated with either vehicle control or the proteasome inhibitor MG132 ([…]). Arc was then immunoprecipitated using the anti-Myc antibody 9E10, and Western blot analysis was performed using an anti-Arc antibody to reveal both non-ubiquitinated and ubiquitinated forms of Arc. (FIG. 9C) Mass spectrometric peaks reveal that Ube3A catalyzes the ubiquitination of Arc on lysine 269. […] SEQ ID NO:5 is KGGEFLQYSEGTLSR(SEQ ID NO: 5) shown. Note the presence of two glycine residues covalently linked to the first lysine of this peptide which is indicative of ubiquitin being attached to that specific residue. […] Additional data not pictured here reveal the presence of ubiquitinated lysine 268 as well. […] SEQ ID NO: 6 is LIFAGKGGQLEDGR (SEQ ID NO: 6) shown in upper panel of FIG. 9D. […]
# mGluR5 = molecular target: T1, mGluR5 (Mus musculus, UniProt Q3UVX5); details: mouse model of FXS, injection; cited from earlier work
# T1 construct: host or cells: mouse model of Fragile X syndrome (in vivo)
# [2] = system: muscarinic acetylcholine receptors (mAChR); details: literature; cited from earlier work
# Ube3A = assay: Kainate-induced seizures: Ube3A mRNA and protein in mouse hippocampus; type: in vivo, mice; details: kainate-induced seizures vs control
# Text: FIGS. 8A-8G show regulation of Ube3A mRNA and protein by neuronal activity. (FIG. 8A) Real-time PCR analysis of Ube3A mRNA extracted from hippocampal neurons at E18+10 DIV treated for six hours with the indicated agent. Data are means+/−SEM from three independent experiments. * indicates statistical significance in pairwise comparison to control: P<0.01 T-test. (FIG. 8B) Quantitative Western blot analysis of Ube3A protein. Protein lysates were collected from hippocampal neurons at E18+8 DIV following treatment with the indicated agent for seven hours. This experiment was performed three times independently and the data were normalized to the control and are presented as means+/−SEM. * indicates P<0.01, # indicates P<0.05 in analysis of statistical significance in pairwise comparison to control by T-test. (FIG. 8C) Quantitative Western blot analysis of Ube3A protein. […] (FIG. 8E) Quantitative Western blot analysis of Ube3A protein from mice 2.5 hours after injection with saline (ctl) or kainic acid (seized) to induce seizures. […] (FIG. 8F) Quantitative Western blot analysis of Ube3A protein from mice housed in standard laboratory cages (control) or placed in cages with novel objects (enriched) for 2.5 hours. […]
# Quantitative Real-Time PCR was carried out following standard procedures. […]
# T1 sequence (Q3UVX5 19-1203): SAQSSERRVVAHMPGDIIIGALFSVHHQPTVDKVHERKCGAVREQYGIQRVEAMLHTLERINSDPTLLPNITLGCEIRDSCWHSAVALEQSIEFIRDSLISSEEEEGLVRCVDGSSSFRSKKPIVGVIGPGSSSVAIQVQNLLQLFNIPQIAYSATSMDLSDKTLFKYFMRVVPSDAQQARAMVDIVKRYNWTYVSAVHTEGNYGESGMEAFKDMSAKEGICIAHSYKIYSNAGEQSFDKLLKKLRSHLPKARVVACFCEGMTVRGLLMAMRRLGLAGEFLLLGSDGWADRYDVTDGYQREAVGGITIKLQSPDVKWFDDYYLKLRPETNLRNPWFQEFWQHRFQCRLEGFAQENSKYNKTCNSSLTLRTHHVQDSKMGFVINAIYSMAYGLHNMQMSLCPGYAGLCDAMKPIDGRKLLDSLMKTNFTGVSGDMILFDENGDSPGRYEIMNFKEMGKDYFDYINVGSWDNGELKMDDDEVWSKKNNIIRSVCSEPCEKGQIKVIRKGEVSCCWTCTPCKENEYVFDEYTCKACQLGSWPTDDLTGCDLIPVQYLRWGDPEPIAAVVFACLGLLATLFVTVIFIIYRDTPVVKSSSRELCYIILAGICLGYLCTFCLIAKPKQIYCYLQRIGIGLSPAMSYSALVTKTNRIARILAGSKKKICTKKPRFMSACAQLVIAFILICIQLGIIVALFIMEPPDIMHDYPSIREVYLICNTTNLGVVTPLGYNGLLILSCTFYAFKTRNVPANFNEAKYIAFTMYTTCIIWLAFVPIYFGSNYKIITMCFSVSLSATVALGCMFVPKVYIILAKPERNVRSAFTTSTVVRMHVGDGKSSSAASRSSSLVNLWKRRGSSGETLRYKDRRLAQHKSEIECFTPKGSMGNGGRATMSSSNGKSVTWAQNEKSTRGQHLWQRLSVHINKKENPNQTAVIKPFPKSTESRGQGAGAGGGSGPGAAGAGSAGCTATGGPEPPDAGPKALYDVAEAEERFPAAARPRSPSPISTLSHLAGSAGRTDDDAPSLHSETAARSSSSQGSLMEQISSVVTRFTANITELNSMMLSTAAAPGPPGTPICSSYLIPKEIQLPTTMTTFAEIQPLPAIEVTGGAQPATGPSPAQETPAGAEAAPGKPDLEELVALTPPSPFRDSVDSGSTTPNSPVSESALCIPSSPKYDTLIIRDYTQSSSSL
molecule,measurement,setting,value
C[C@@H](CO)CCC[C@@H](C)[C@H]1CC[C@H]2[C@@H]3CC=C4C[C@@H](O)CC[C@]4(C)[C@H]3CC[C@]12C [27-hydroxycholesterol],ARC expression,Arc,specifically decreased
O=S(=O)(NCCNC/C=C/c1ccc(Br)cc1)c1cccc2cnccc12 [H89],ARC expression,Arc,induction of ARC expression
CC(C)C[C@@H](C=O)NC(=O)[C@H](CC(C)C)NC(=O)[C@H](CC(C)C)NC(=O)OCc1ccccc1 [MG132] (Cbz-Leu-Leu-Leu-aldehyde),Ube3A-mediated degradation of Arc,[1],blocked Ube3A-mediated degradation of Arc
"Cc1cccc(C#Cc2ccccc2)n1 [MPEP, 2-methyl-6-(phenylethynyl)-pyridine]",surface expression of AMPARs,mGluR5,restored surface expression of AMPARs
same,symptoms associated with FXS,mGluR5,prevented the symptoms associated with FXS
CN1[C@@H]2CC[C@H]1C[C@@H](OC(=O)C(CO)c1ccccc1)C2 (stereo partly drawn) [atropine],mAChR-induced expression of ARC,[2],can be inhibited
"C=C(C)[C@H]1CN[C@H](C(=O)O)[C@H]1CC(=O)O [kainate, kainic acid]",Ube3A mRNA level,Ube3A; mouse hippocampus,increased
same,Ube3A protein level,Ube3A; mouse,increased
insulin: insulin,ARC expression,Arc,increased
